Some results are limits rather than exact numbers.

The target in this assay is T1, human acetyl-CoA carboxylase 2 (ACC2) (Homo sapiens, UniProt O00763).
T1 construct: The cDNA encoding amino acids 144 to 2458 of human acetyl-CoA carboxylase 2; made in house; host or cells: Sf9 insect cells (baculovirus, pFastBac1)
T1 sequence (O00763 144-2458): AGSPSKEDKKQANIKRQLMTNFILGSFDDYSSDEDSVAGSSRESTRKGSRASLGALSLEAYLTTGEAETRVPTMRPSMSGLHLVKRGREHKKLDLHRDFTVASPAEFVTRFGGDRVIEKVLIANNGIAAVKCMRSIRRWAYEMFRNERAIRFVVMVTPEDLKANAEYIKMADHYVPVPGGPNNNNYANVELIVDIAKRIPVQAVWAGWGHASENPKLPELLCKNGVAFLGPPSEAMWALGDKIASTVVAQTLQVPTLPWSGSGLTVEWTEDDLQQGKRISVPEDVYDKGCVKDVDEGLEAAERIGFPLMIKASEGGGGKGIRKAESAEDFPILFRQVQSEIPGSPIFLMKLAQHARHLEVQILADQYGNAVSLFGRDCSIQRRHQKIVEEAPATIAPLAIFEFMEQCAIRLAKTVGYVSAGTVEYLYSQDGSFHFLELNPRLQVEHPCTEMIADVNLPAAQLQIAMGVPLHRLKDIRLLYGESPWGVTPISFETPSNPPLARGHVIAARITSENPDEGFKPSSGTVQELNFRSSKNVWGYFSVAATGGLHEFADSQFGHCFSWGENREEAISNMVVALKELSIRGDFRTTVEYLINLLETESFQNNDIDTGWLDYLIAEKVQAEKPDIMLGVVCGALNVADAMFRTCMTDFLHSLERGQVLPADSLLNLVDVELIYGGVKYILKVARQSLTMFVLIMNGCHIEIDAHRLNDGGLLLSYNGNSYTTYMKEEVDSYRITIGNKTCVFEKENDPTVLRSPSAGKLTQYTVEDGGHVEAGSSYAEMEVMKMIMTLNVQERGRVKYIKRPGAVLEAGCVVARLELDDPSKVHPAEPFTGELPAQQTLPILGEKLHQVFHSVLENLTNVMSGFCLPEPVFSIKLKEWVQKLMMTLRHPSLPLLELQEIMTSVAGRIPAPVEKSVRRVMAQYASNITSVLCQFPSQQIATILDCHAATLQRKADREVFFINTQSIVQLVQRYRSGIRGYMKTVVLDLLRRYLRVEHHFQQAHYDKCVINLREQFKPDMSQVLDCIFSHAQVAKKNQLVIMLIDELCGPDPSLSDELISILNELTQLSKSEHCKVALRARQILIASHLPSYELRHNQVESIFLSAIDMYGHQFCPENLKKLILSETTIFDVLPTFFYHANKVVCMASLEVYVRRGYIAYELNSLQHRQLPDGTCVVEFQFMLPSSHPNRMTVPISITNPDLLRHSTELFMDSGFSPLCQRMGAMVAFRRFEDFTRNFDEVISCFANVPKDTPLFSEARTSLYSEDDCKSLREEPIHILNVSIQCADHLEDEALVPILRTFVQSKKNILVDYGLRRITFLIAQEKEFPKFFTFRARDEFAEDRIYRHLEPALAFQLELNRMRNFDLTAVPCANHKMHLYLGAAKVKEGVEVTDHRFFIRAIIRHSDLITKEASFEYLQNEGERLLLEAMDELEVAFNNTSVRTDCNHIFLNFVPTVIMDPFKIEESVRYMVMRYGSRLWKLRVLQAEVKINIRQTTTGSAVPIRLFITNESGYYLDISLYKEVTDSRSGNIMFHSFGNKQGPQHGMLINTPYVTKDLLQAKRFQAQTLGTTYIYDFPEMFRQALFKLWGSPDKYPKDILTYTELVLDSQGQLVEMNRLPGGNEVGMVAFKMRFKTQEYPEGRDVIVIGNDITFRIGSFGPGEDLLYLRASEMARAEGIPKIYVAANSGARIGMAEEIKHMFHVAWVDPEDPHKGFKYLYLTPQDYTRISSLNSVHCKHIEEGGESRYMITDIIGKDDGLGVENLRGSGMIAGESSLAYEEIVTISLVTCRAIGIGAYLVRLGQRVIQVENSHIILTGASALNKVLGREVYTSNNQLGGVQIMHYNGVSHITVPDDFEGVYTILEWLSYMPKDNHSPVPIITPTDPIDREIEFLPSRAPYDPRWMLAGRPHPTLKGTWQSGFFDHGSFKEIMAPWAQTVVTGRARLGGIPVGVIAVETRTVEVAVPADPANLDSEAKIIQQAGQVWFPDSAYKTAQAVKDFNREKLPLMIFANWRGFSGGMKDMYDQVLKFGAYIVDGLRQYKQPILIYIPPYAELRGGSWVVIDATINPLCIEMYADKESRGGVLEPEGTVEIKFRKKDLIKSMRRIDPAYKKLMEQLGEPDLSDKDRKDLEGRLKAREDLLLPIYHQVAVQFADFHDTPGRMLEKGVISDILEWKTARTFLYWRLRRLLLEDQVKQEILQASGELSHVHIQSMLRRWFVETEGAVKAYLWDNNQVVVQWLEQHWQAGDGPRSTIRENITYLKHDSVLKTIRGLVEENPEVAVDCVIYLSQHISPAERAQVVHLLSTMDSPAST
The experiment in a line: Acetyl-CoA carboxylase enzyme assay (malonyl-CoA formation by LC/MS/MS). It is filed as biochemical. The note with it: recombinant human ACC2 (aa 144-2458); read-out: IC50 ACC2. The procedure, abridged:
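Malonyl-CoA formation was read by LC/MS/MS MRM against a [13C3]-malonyl-CoA internal standard, after acetic acid quench. The enzyme was baculovirus/Sf9-expressed human ACC2 residues 144–2458, given 15 minutes room-temperature compound preincubation in HEPES pH 7.5 buffer with MgCl2, citrate and DTT. Substrate solution held 50 μM acetyl-CoA, 120 μM ATP and 2 mM KHCO3.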
Regarding `COCc1ccc(-c2cc3ccc(S(=O)(=O)N[C@H]4CC[C@H](C(=O)N5CCNC(C(F)(F)F)C5)CC4)cc3n2C)cc1` (stereo partly drawn) [Example 339, 2-(4-(methoxymethyl)phenyl)-1-methyl-N-((1r,4r)-4-(3-(trifluoromethyl)piperazine-1-carbonyl)cyclohexyl)-1H-indole-6-sulfonamide], the IC50 is 30 nM. As to `CCOC(=O)CCc1cn(C)c2ccc(S(=O)(=O)N[C@H]3CC[C@H](C(=O)N[C@H](C)c4ccc(F)cc4)CC3)cc12` [Example 487], the IC50 was determined as 91 nM. As for `Cn1cc(C#N)c2cc(S(=O)(=O)N[C@H]3CC[C@H](C(=O)N[C@@H](c4ccccc4)C(C)(C)O)CC3)ccc21` [Example 89, (1r,4S)-4-(3-cyano-1-methyl-1H-indole-5-sulfonamido)-N-((S)-2-hydroxy-2-methyl-1-phenylpropyl)cyclohexanecarboxamide], the IC50 worked out at 20 nM. On to `CC(C)OC(=O)c1ccc(NS(=O)(=O)c2ccc3[nH]c(Nc4ccc5c(c4)OCCO5)nc3c2)cc1` [Example 526, isopropyl 4-(2-(2,3-dihydrobenzo[b][1,4]dioxin-6-ylamino)-1H-benzo[d]imidazole-5-sulfonamido)benzoate], for which the IC50 was 178 nM. The result for `CC(NC(=O)[C@H]1CC[C@H](NS(=O)(=O)c2ccc3ccccc3c2)CC1)c1cccnc1` (stereo partly drawn) [Example 680, (1r,4r)-4-(naphthalene-2-sulfonamido)-N-(1-(pyridin-3-yl)ethyl)cyclohexanecarboxamide] reads 240 nM; that for `CCN(C)C(=O)[C@H]1CC[C@H](NS(=O)(=O)c2ccc3cc(-c4ccc(CCC(=O)O)cc4)n(C)c3c2)CC1` [Example 365, 3-(4-(6-(N-((1r,4r)-4-(ethyl(methyl)carbamoyl)cyclohexyl)sulfamoyl)-1-methyl-1H-indol-2-yl)phenyl)propanoic acid], 410 nM; that for `C[C@@H](NC(=O)[C@H]1CC[C@H](NS(=O)(=O)c2ccc3[nH]c(Nc4ccc(N5CCOCC5)nc4)nc3c2)CC1)c1ccccc1` [Example 571, (1r,4R)-4-(2-(6-morpholinopyridin-3-ylamino)-1H-benzo[d]imidazole-5-sulfonamido)-N-((R)-1-phenylethyl)cyclohexanecarboxamide], less than 10 nM.

Regarding `C[C@@H](NC(=O)[C@H]1CC[C@H](NS(=O)(=O)c2ccc3nc(NCCC(=O)O)ccc3c2)CC1)c1ccc(F)cc1` [Example 203, 3-(6-(N-((1R,4r)-4-((R)-1-(4-fluorophenyl)ethylcarbamoyl)cyclohexyl)sulfamoyl)quinolin-2-ylamino)propanoic acid], the IC50 worked out at 305 nM.

Regarding `CCCCOC(=O)c1ccc(NS(=O)(=O)c2ccc3nc(-c4ccccc4)[nH]c3c2)cc1` [Example 491, butyl 4-(2-phenyl-1H-benzo[d]imidazole-6-sulfonamido)benzoate], the IC50 came out at 1130 nM. Take `COCCc1ccc(-c2cc3ccc(S(=O)(=O)N[C@H]4CC[C@H](C(=O)N5CCOC[C@@H]5C5CC5)CC4)cc3n2C)cc1` [Example 457, N-((1S,4r)-4-((S)-3-cyclopropylmorpholine-4-carbonyl)cyclohexyl)-2-(4-(2-methoxyethyl)phenyl)-1-methyl-1H-indole-6-sulfonamide]: the IC50 is less than 10 nM. On to `CC(C)OC(=O)c1ccc(NS(=O)(=O)c2ccc3[nH]c(Nc4cccc(F)c4F)nc3c2)cc1` [Example 533, isopropyl 4-(2-(2,3-difluorophenylamino)-1H-benzo[d]imidazole-5-sulfonamido)benzoate], for which the IC50 was found to be 641 nM. To `Cc1ccccc1-c1cc2ccc(S(=O)(=O)N[C@H]3CC[C@H](C(=O)N4CCOC[C@@H]4C)CC3)cc2[nH]1` [Example 482, N-((1S,4r)-4-((S)-3-methylmorpholine-4-carbonyl)cyclohexyl)-2-o-tolyl-1H-indole-6-sulfonamide] belongs 90 nM. As to `CC(C)OC(=O)c1ccc(NS(=O)(=O)c2ccc3[nH]c(Nc4ccc(Cl)c(S(N)(=O)=O)c4)nc3c2)cc1` [Example 544, isopropyl 4-(2-(4-chloro-3-sulfamoylphenylamino)-1H-benzo[d]imidazole-5-sulfonamido)benzoate], the half-maximal inhibitory concentration (IC50) was found to be 35 nM. For `O=C(N[C@H](CO)c1ccccc1)[C@H]1CC[C@H](NS(=O)(=O)c2ccc3[nH]c(-c4ccccc4)nc3c2)CC1` [Example 579, (1r,4S)-N-((S)-2-hydroxy-1-phenylethyl)-4-(2-phenyl-1H-benzo[d]imidazole-5-sulfonamido)cyclohexanecarboxamide], the IC50 stood at 10 nM.

On to `Cn1c(-c2ccccc2)c(Cl)c2ccc(S(=O)(=O)N[C@H]3CC[C@H](C(=O)N4CCCC(C(C)(C)O)C4)CC3)cc21` (stereo partly drawn) [Example 384, 3-chloro-N-((1r,4r)-4-(3-(2-hydroxypropan-2-yl)piperidine-1-carbonyl)cyclohexyl)-1-methyl-2-phenyl-1H-indole-6-sulfonamide], for which the IC50 is less than 10 nM. `CC(C)OC(=O)c1ccc(NS(=O)(=O)c2ccc3[nH]c(Nc4ccccc4)nc3c2)cc1` [Example 521, isopropyl 4-(2-(phenylamino)-1H-benzo[d]imidazole-5-sulfonamido)benzoate]: the IC50 was determined as 239 nM. `Cn1c(-c2ccccc2)cc2ccc(S(=O)(=O)N[C@H]3CC[C@H](C(=O)N4CCC[C@@H]4CO)CC3)cc21` [Example 432, N-((1R,4r)-4-((R)-2-(hydroxymethyl)pyrrolidine-1-carbonyl)cyclohexyl)-1-methyl-2-phenyl-1H-indole-6-sulfonamide]: the IC50 amounted to 95 nM. Consider `CC(C)(C)c1nnc(-c2ccc(NS(=O)(=O)c3ccc4nc(-c5ccccc5)[nH]c4c3)cc2)o1` [Example 513, N-(4-(5-tert-butyl-1,3,4-oxadiazol-2-yl)phenyl)-2-phenyl-1H-benzo[d]imidazole-6-sulfonamide], for which the half-maximal inhibitory concentration (IC50) came out at 2880 nM. In the case of `C[C@@H](NC(=O)[C@H]1CC[C@H](NS(=O)(=O)c2ccc3[nH]c(-c4ccccc4)nc3c2)CC1)c1ccccc1` [Example 1, (1r,4R)-4-(2-phenyl-1H-benzo[d]imidazole-5-sulfonamido)-N—((R)-1-phenylethyl)cyclohexanecarboxamide], the IC50 worked out at 13 nM.

In the case of `Cc1ccccc1-c1cc2ccc(S(=O)(=O)N[C@H]3CC[C@H](C(=O)N4CCN(C(=O)OC(C)(C)C)C[C@@H]4c4ccccc4)CC3)cc2[nH]1` [Example 322, (S)-tert-butyl 3-phenyl-4-((1r,4S)-4-(2-o-tolyl-1H-indole-6-sulfonamido)cyclohexanecarbonyl)piperazine-1-carboxylate], the half-inhibitory concentration (IC50) is less than 10 nM.

Consider `C[C@@H](NC(=O)[C@H]1CC[C@H](NS(=O)(=O)c2ccc3nc(-c4ccccc4)oc3c2)CC1)c1ccc(F)cc1` [Example 11, N—((R)-1-(4-fluorophenyl)ethyl)-4-(2-phenylbenzo[d]oxazole-6-sulfonamido)cyclohexanecarboxamide], for which the IC50 came out at 48 nM. In the case of `CCOc1ccc2cc(S(=O)(=O)N[C@H]3CC[C@H](C(=O)N[C@H](CC(=O)OC(C)(C)C)c4ccccc4)CC3)ccc2n1` [Example 211, (R)-tert-butyl 3-((1r,4R)-4-(2-ethoxyquinoline-6-sulfonamido)cyclohexanecarboxamido)-3-phenylpropanoate], the IC50 stood at 180 nM.

Regarding `CC(C)c1nnc([C@H]2CC[C@H](NS(=O)(=O)c3ccc4[nH]c(Nc5ccc(N6CCN(C)CC6)cc5)nc4c3)CC2)o1` [Example 598, N-((1r,4r)-4-(5-isopropyl-1,3,4-oxadiazol-2-yl)cyclohexyl)-2-(4-(4-methylpiperazin-1-yl)phenylamino)-1H-benzo[d]imidazole-5-sulfonamide], the IC50 came to 88 nM. Turning to `Cn1c(-c2ccccc2)cc2ccc(S(=O)(=O)N[C@H]3CC[C@H](C(=O)N4CCN[C@@H](C(F)(F)F)C4)CC3)cc21` [Example 332, 1-methyl-2-phenyl-N-((1R,4r)-4-((R)-3-(trifluoromethyl)piperazine-1-carbonyl)cyclohexyl)-1H-indole-6-sulfonamide], the IC50 amounted to 25 nM. With `C[C@@H](NC(=O)[C@H]1CC[C@H](NS(=O)(=O)c2cnc3c(c2)N(C)CCN3C)CC1)c1ccc(F)cc1` [Example 34, (1r,4R)-4-(1,4-dimethyl-1,2,3,4-tetrahydropyrido[3,2-b]pyrazine-7-sulfonamido)-N—((R)-1-(4-fluorophenyl)ethyl)cyclohexanecarboxamide], the IC50 came to 138 nM. For the molecule `C[C@@H](OC(=O)C1(C)CCC(NS(=O)(=O)c2ccc3c(ccn3C)c2)CC1)c1ccccc1` (stereo partly drawn) [Example 398, (R)-1-phenylethyl 1-methyl-4-(1-methyl-1H-indole-5-sulfonamido)cyclohexanecarboxylate], the IC50 was less than 10 nM. With `Cc1cc(-c2ccc3cc(S(=O)(=O)N[C@H]4CC[C@H](C(=O)N[C@H](C)c5ccc(F)cc5)CC4)ccc3n2)ccn1` [Example 229, (1r,4R)-N-((R)-1-(4-fluorophenyl)ethyl)-4-(2-(2-methylpyridin-4-yl)quinoline-6-sulfonamido)cyclohexanecarboxamide], the IC50 turned out to be 20 nM. Turning to `CCC(C)NC(=O)[C@H]1CC[C@H](NS(=O)(=O)c2ccc3[nH]c(-c4cccnc4)cc3c2)CC1` (stereo partly drawn) [Example 286, (1r,4r)-N-sec-butyl-4-(2-(pyridin-3-yl)-1H-indole-5-sulfonamido)cyclohexanecarboxamide], the IC50 stood at 342 nM. Consider `C[C@@H](NC(=O)[C@H]1CC[C@H](NS(=O)(=O)c2ccc3cc(-c4ccccc4C(F)(F)F)[nH]c3c2)CC1)c1ccc(F)cc1` [Example 329, (1r,4R)-N-((R)-1-(4-fluorophenyl)ethyl)-4-(2-(2-(trifluoromethyl)phenyl)-1H-indole-6-sulfonamido)cyclohexanecarboxamide], for which the IC50 worked out at 120 nM. Turning to `COCCNC(=O)[C@H]1CC[C@H](NS(=O)(=O)c2ccc3[nH]c(-c4ccccc4)nc3c2)CC1` [Example 634, (1r,4r)-N-(2-methoxyethyl)-4-(2-phenyl-1H-benzo[d]imidazole-5-sulfonamido)cyclohexanecarboxamide], the 50% inhibitory concentration (IC50) is 1680 nM.

The values above are taken from US8697739B2, “Bicyclic acetyl-CoA carboxylase inhibitors and uses thereof” (Novartis AG, priority 2010, dated 2014).
